# Data as given in patent US20100099762A1, “COMBINATION THERAPY” (THE MENTAL HEALTH RESEARCH INSTITUTE OF VICTORIA, priority 2006, published 2010).
# Legend:
# [1] = system: bipolar disorder; experiment: Double blind randomised placebo controlled trial of NAC in addition to treatment as usual in bipolar disorder; type: in vivo, human
# Description: Consented individuals were assigned using simple randomization (Beller et al., 2002) to treatment with NAC or placebo in addition to treatment as usual, in a double-blind fashion. The nature and dose of the primary therapy was monitored. The person generating the randomisation schedule was not involved in any aspect of participant interview. The investigators, clinicians and statisticians were blind to treatment allocation until the data analysis was completed. The study was registered with the Australian Clinical Trials Registry (Protocol #12605000362695). Participants were recruited through advertisements, their private psychiatrists and database screening. All participants provided written informed consent. The trial setting was in the public and private outpatient psychiatry clinics of the participating centers. The trial was approved by each participating research and ethics committee (Barwon Health, Southwest Area Mental Health Service, Bendigo Health, all in Victoria, Australia), and was conducted according to Good Clinical Practice guidelines.
# All randomized participants received two NAC (500 mg) capsules twice daily (2 g daily), or matching placebo. We selected a daily dose that was at the upper dosing range for published clinical trials of oral NAC of 12 weeks to 12 months duration, and that reported evidence of tolerability and some efficacy (Adair et al., 2001; Van Schooten et al., 2002; Behr et al., 2002; Demedts et al., 2005).
# Individuals needed to meet DSM-IV criteria for bipolar disorder (I or II) with at least 1 documented episode of illness (depressive, manic or mixed) in the previous 6 months, and had to have been on stable therapy for at least 1 month prior to randomisation. Participants were required to have the capacity to consent to the study and comply with study procedures, and utilise effective contraception where indicated.
# Exclusion criteria included individuals with a known or suspected clinically relevant systemic medical disorder, including asthma, bronchospasm, or respiratory insufficiency, recent gastrointestinal ulcers, and individuals who were pregnant or lactating. Individuals taking greater than 500 mg of NAC/day, 200 μg of selenium/day or 500 IU of Vitamin E/day were excluded, as were those with a history of anaphylaxis with NAC or any component of the preparation. Inability to comply with either the requirements of informed consent or the treatment protocol was also an exclusion criterion.
# Withdrawal from the study occurred if participants ceased taking their trial medication for 7 consecutive days, stopped effective contraception or became pregnant. Dose changes to existing medications, or the addition or removal of an agent were accepted, and participants were allowed to continue with the study. Participants were withdrawn from the study if they revoked their consent or developed serious adverse events associated with the study drug, which could occur either at the request of the patient or the discretion of the investigator.
# Participants were assessed at baseline using a structured clinical interview (MINI-plus) and underwent a physical examination. Clinical status was assessed using the MADRS, BDRS, YMRS, CGI-Improvement and Severity scales for bipolar disorder (CGI-I-BP, CGI-S-BP), GAF, SOFAS, SLICE/LIFE, LIFE RIFT, and Q-LES-Q.
# These scales were repeated 2 weekly for the first 4 weeks and 4-weekly thereafter for a total of 24 weeks, or on the day of study termination if the patient withdrew prior to the final scheduled visit. A follow-up visit was conducted 4 weeks (±2 weeks) after the trial completion, either at trial endpoint (week 24), or premature discontinuation, to determine any change in clinical status on treatment discontinuation.
# Time to any intervention for mood symptoms was a further outcome measure. […]
# [2] = in vivo; cited from earlier work
# [3] = NAC 2 g daily plus treatment as usual, week 24
# [4] = post-treatment discontinuation (washout, week 28)
# [5] = week 24, MMRM, between treatment group LS mean difference
compound,measurement,setting,value
"CC(=O)N[C@@H](CS)C(=O)O [NAC, N-acetyl cysteine]","BDRS: End point to Week 24 (Mean ± SD), NAC",[1]; [3],6.7 (6.4)
same,"CGI-I-BP: End point to Week 24 (Mean ± SD), NAC",[1]; [3],3.1 (1.6)
same,"CGI-I-D: End point to Week 24 (Mean ± SD), NAC",[1]; [3],3.2 (1.6)
same,"CGI-I-M: End point to Week 24 (Mean ± SD), NAC",[1]; [3],3.7 (1.1)
same,"CGI-S-BP: End point to Week 24 (Mean ± SD), NAC",[1]; [3],2.5 (1.2)
same,"CGI-S-D: End point to Week 24 (Mean ± SD), NAC",[1]; [3],2.3 (1.1)
same,"CGI-S-M: End point to Week 24 (Mean ± SD), NAC",[1]; [3],1.9 (1.2)
same,"GAF: End point to Week 24 (Mean ± SD), NAC",[1]; [3],71.3 (13.9)
same,"LIFE-RIFE: End point to Week 24 (Mean ± SD), NAC",[1]; [3],8.9 (3.3)
same,"MADRS: End point to Week 24 (Mean ± SD), NAC",[1]; [3],6.6 (7.4)
same,"Q-LES-Q: End point to Week 24 (Mean ± SD), NAC",[1]; [3],59.2 (12.7)
same,"SLICE-LIFE: End point to Week 24 (Mean ± SD), NAC",[1]; [3],14.9 (5.2)
same,"SOFAS: End point to Week 24 (Mean ± SD), NAC",[1]; [3],73.7 (13.4)
same,"YMRS: End point to Week 24 (Mean ± SD), NAC",[1]; [3],2.1 (3.3)
same,Adverse event: headaches,"[1]; NAC group, placebo 8%",18%
same,Adverse event: heartburn,"[1]; NAC group, placebo 8%",16%
same,Adverse event: increased pain in joints,"[1]; NAC group, placebo 8%",16%
same,Adverse event: changed energy,"[1]; NAC group, placebo 27%",21%
same,Time to a mood episode (Kaplan Meier),"[1]; NAC versus placebo, log-rank test",did not reveal any significant differences
same,Effect sizes (Cohen's d) on all rating scales,[1]; after 24 weeks of NAC treatment,moderate to large effects
same,Treatment benefit at the post discontinuation visit,"[1]; any of the scales, week 28",not evident
same,"Adverse events, NAC group compared to placebo group",[1]; checklist of 44 somatic items,No reported event was significantly more common
same,Serious adverse events (SAE) in the group,"[1]; of the 7 reported, 4 in placebo group",3
same,"BDRS: Post-treatment to Week 28 (Mean ± SD), NAC",[1]; [4],12.1 (10.8)
same,"CGI-I-BP: Post-treatment to Week 28 (Mean ± SD), NAC",[1]; [4],3.5 (1.5)
same,"CGI-I-D: Post-treatment to Week 28 (Mean ± SD), NAC",[1]; [4],3.7 (1.7)
same,"CGI-I-M: Post-treatment to Week 28 (Mean ± SD), NAC",[1]; [4],3.7 (1.0)
same,"CGI-S-BP: Post-treatment to Week 28 (Mean ± SD), NAC",[1]; [4],3.1 (1.5)
same,"CGI-S-D: Post-treatment to Week 28 (Mean ± SD), NAC",[1]; [4],3.1 (1.7)
same,"CGI-S-M: Post-treatment to Week 28 (Mean ± SD), NAC",[1]; [4],1.9 (0.9)
same,"GAF: Post-treatment to Week 28 (Mean ± SD), NAC",[1]; [4],66.6 (14.7)
same,"LIFE-RIFE: Post-treatment to Week 28 (Mean ± SD), NAC",[1]; [4],10.8 (4.2)
same,"MADRS: Post-treatment to Week 28 (Mean ± SD), NAC",[1]; [4],12.2 (11.6)
same,"Q-LES-Q: Post-treatment to Week 28 (Mean ± SD), NAC",[1]; [4],52.8 (11.4)
same,"SLICE-LIFE: Post-treatment to Week 28 (Mean ± SD), NAC",[1]; [4],17.2 (6.0)
same,"SOFAS: Post-treatment to Week 28 (Mean ± SD), NAC",[1]; [4],66.9 (16.2)
same,"YMRS: Post-treatment to Week 28 (Mean ± SD), NAC",[1]; [4],2.8 (3.4)
same,"Response, defined as a 50% reduction in total MADRS score, participants","[1]; week 20 compared to baseline, placebo 21",46%
same,CGI-I-BP: NAC-Placebo at Endpoint LS Mean,[1]; [5],−0.67
same,CGI-I-D: NAC-Placebo at Endpoint LS Mean,[1]; [5],−0.62
same,CGI-I-M: NAC-Placebo at Endpoint LS Mean,[1]; [5],−0.05
same,CGI-S-D: NAC-Placebo at Endpoint LS Mean,[1]; [5],−0.67
same,CGI-S-M: NAC-Placebo at Endpoint LS Mean,[1]; [5],−0.03
same,"Response, defined as a 50% reduction in total MADRS score, participants","[1]; week 24 compared to baseline, placebo 18",51%
same,Human dosing without adverse effects,[2],up to 5 g/day
